Source: ChEMBL document CHEMBL1145829, “Estrogen receptor modulators: identification and structure-activity relationships of potent ERalpha-selective tetrahydroisoquinoline ligands” (J Med Chem, 2003)

Assays:
[1] = Total clearance value was tested after peroral administration (5 mg/kg ) in conscious rat; format: ADME, organism-based; conditions: in vivo, po
MCF7 [2] = test: cells; conditions: Homo sapiens
Rattus norvegicus = test: Maximal blood concentration after peroral administration (dose normalized) (5 mg/kg) in conscious rat; format: ADME, organism-based; design: dose 5 mg/kg, route oral; conditions: in vivo, po
[3] = Terminal half life was tested after peroral administration (5 mg/kg) in conscious rat; format: ADME, organism-based; conditions: in vivo, po
MCF7 [4] = tested on: MCF7
in vivo = conditions: rat, po, 5 mg/kg
MCF7 [5] = test: cells; conditions: Homo sapiens; remark: listed apart in the source
Estrogen receptor beta [6] = molecular target: T1, Estrogen receptor beta (Homo sapiens, UniProt Q92731)
Estrogen receptor beta [7] = molecular target: T1, Estrogen receptor beta; remark: listed apart in the source
Estrogen receptor [8] = molecular target: T2, Estrogen receptor (Homo sapiens, UniProt P03372)
T2 sequence (P03372 whole entry): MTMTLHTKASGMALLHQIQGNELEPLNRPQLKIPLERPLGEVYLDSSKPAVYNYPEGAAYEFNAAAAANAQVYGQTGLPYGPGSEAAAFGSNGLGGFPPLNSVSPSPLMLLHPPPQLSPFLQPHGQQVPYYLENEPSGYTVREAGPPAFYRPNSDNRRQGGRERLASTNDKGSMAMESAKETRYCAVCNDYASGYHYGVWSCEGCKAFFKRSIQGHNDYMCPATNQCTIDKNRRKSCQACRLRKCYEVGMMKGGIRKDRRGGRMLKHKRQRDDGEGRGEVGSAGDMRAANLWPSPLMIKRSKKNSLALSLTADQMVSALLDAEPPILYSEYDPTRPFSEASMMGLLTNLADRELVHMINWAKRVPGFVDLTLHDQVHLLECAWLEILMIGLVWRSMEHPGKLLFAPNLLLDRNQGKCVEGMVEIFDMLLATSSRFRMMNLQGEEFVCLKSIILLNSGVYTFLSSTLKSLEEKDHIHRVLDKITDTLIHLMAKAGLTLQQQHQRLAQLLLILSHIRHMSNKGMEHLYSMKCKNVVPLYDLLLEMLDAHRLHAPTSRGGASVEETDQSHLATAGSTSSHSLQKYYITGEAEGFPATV

Estrogen receptor [9] = molecular target: T2, Estrogen receptor; remark: listed apart in the source
MCF7 [10] = tested on: MCF7; remark: listed apart in the source
Estrogen receptor [11] = molecular target: T2, Estrogen receptor; test: Inhibition of estrogen receptor alpha mediated transcriptional activation

| Structure (SMILES) | CL/F [1] [mL/min/kg] | EC50 (MCF7 [2]) [nM] | Cmax (Rattus norvegicus) [nM] | half-life [3] [h] | Agonism (MCF7 [4]) [%] | bioavailability (in vivo) [%] | IC50 (MCF7 [5]) [nM] | IC50 (Estrogen receptor beta [6]) [nM] | IC50 (Estrogen receptor beta [7]) [nM] | IC50 (Estrogen receptor [8]) [nM] | IC50 (Estrogen receptor [9]) [nM] | EC50 (MCF7 [10]) [pnM] | IC50 (Estrogen receptor [11]) [nM] |
| --- | --- | --- | --- | --- | --- | --- | --- | --- | --- | --- | --- | --- | --- |
| Cl.O=C(c1ccc(OCCN2CCCCC2)cc1)c1c(-c2ccc(O)cc2)sc2cc(O)ccc12 [RALOXIFENE HYDROCHLORIDE] | 158 | 0.02 | 7.5 | 1.7 | – | – | – | – | – | – | – | – | – |
| CC1(c2ccc(OCCN3CCCC3)cc2)c2ccc(O)cc2CCN1c1cccc(O)c1 (centres undefined) | 130 | < 0.5 | 5.3 | 5.9 | 15 | 15 | 2 | 33 | 190 | – | – | – | – |
| CC1(c2ccc(OCCN3CCCC3)cc2)c2ccc(O)cc2CCN1c1ccc(F)cc1 (centres undefined) | 45.2 | < 0.1 | 20 | 8.6 | 16 | 53 | 3.5 | 82 | 204 | 31 | – | – | – |
| CC1(c2ccc(OCCN3CCCCC3)cc2)c2ccc(O)cc2CCN1c1cccc(Cl)c1 (centres undefined) | – | < 0.1 | – | – | 18 | – | 8 | 159 | 284 | 49 | – | – | – |
| Cl.Oc1ccc2c(c1)CC[C@H](c1ccccc1)[C@@H]2c1ccc(OCCN2CCCC2)cc1 | 55.7 | 0.02 | 15.5 | 5.2 | – | 38 | – | – | – | – | – | – | – |
| CC1(c2ccc(OCCN3CCCC3)cc2)c2ccc(O)cc2CCN1c1ccccc1 (centres undefined) | – | – | – | – | – | – | – | 83 | 227 | 38 | – | – | – |
| CC(C)c1ccc(N2CCc3cc(O)ccc3C2(C)c2ccc(OCCN3CCCC3)cc2)cc1 (centres undefined) | – | < 0.1 | – | – | 10 | – | 3.2 | 4970 | 1970 | 44 | – | – | – |
| CCC(=C(c1ccc(O)cc1)c1ccc(OCCN(C)C)cc1)c1ccccc1 | – | 0.12 | – | – | 31 | – | 8.5 | – | – | – | – | – | – |
| CC1(c2ccc(OCCN3CCCCCC3)cc2)c2ccc(O)cc2CCN1c1ccccc1 (centres undefined) | – | < 0.1 | – | – | 13 | – | 6 | 80 | 200 | 56 | – | – | – |
| CC(C)c1cccc(N2CCc3cc(O)ccc3C2(C)c2ccc(OCCN3CCCCC3)cc2)c1 (centres undefined) | – | < 0.4 | – | – | 16 | – | 27 | 492 | 1100 | 46 | 16.1 | – | – |
| Oc1ccc2c(c1)CCN(c1ccccc1)C2c1ccc(OCCN2CCCCC2)cc1 (centres undefined) | 51.9 | – | 31 | 3.5 | – | 42 | – | – | – | – | – | < 0.15 | – |
| Cc1ccc(N2CCc3cc(O)ccc3C2(C)c2ccc(OCCN3CCCC3)cc2)cc1 (centres undefined) | – | < 0.1 | – | – | 14 | – | 4.1 | 448 | 354 | 31 | – | – | 3.5 |
| Oc1ccc2c(c1)CCN(c1ccccc1)C2c1ccc(F)cc1 (centres undefined) | – | 1 | – | – | – | – | – | – | – | – | – | – | – |
| CC/C(=C(\c1ccccc1)c1ccc(OCCN(C)C)cc1)c1ccccc1 [TAMOXIFEN] | – | 10 | – | – | – | – | – | – | – | – | – | – | – |
| CN(C)c1cccc(N2CCc3cc(O)ccc3C2(C)c2ccc(OCCN3CCCC3)cc2)c1 (centres undefined) | – | < 0.5 | – | – | 19 | – | 32 | 2970 | 2200 | 94 | 19 | – | – |
| CC1(c2ccc(OCCN3CCCCC3)cc2)c2ccc(O)cc2CCN1c1ccc(F)cc1 (centres undefined) | 64.9 | – | 16 | 7.1 | 13 | 56 | – | 92 | 317 | – | – | – | – |
| CC1(c2ccc(OCCN3CCCCC3)cc2)c2ccc(O)cc2CCN1c1ccc(Cl)cc1 (centres undefined) | – | < 0.1 | – | – | 8 | – | 5.2 | 552 | 396 | 35 | – | – | – |
| Cc1ccc(N2CCc3cc(O)ccc3C2(C)c2ccc(OCCN3CCCCC3)cc2)cc1 (centres undefined) | – | < 0.1 | – | – | 9 | – | 4 | 486 | 421 | 28 | 2.9 | – | – |
| CC1(c2ccc(OCCN3CCCCC3)cc2)c2ccc(O)cc2CCN1c1ccccc1 (centres undefined) | 116 | < 0.1 | 5.2 | 5.2 | 13 | 23 | 4 | 83 | 104 | 29 | – | – | – |
| Oc1ccc2c(c1)CCN(c1ccccc1)C2c1ccc(OCCN2CCCC2)cc1 (centres undefined) | 55 | < 0.1 | 55 | 3 | 34 | 73 | 29 | 291 | 166 | 21 | 10.7 | – | – |
| CC1(c2ccc(OCCN3CCCC3)cc2)c2ccc(O)cc2CCN1c1cccc(F)c1 (centres undefined) | – | < 0.1 | – | – | 5 | – | 3.8 | 198 | 123 | 39 | – | – | – |
| CC1(c2ccc(OCCN3CCCC3)cc2)c2ccc(O)cc2CCN1c1cccc(Cl)c1 (centres undefined) | – | < 0.1 | – | – | 20 | – | 7 | 106 | 272 | 66 | – | – | – |
| CN(C)c1cccc(N2CCc3cc(O)ccc3C2(C)c2ccc(OCCN3CCCCC3)cc2)c1 (centres undefined) | – | < 0.5 | – | – | 18 | – | 36 | 2180 | 3110 | 71 | 19.8 | – | – |
| CC(C)c1ccc(N2CCc3cc(O)ccc3C2(C)c2ccc(OCCN3CCCCC3)cc2)cc1 (centres undefined) | – | < 0.1 | – | – | 14 | – | 3.4 | 4780 | 3690 | 71 | – | – | – |
| CC1(c2ccc(OCCN3CCCC3)cc2)c2ccc(O)cc2CCN1c1ccc(Cl)cc1 (centres undefined) | – | < 0.1 | – | – | 10 | – | 6.2 | 531 | 302 | 27 | 3.3 | – | – |
| CC1(c2ccc(OCCN3CCCCC3)cc2)c2ccc(O)cc2CCN1c1cccc(O)c1 (centres undefined) | – | < 0.1 | – | – | 10 | – | 2 | 47 | 304 | 34 | – | – | – |
